Target: T1, G Protein-Coupled Estrogen Receptor (GPER, GPR30) (Homo sapiens, UniProt Q99527)
T1 construct: gene GPER1; plasma membranes of HEK293 cells stably transfected with GPER
Assay: [3H]E2 competitive radioligand binding to plasma membranes of GPER-transfected HEK293 cells

T1 sequence (Q99527 whole entry): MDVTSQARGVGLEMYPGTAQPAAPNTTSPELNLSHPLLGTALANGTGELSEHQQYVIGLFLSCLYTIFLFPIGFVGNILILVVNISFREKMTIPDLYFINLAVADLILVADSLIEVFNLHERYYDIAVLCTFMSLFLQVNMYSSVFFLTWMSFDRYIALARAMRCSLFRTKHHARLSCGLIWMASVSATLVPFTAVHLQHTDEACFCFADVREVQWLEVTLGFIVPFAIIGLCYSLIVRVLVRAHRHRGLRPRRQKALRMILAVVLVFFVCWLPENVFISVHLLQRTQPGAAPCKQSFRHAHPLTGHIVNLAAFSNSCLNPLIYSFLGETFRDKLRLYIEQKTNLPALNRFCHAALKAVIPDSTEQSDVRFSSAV

C[C@@H](CO)CCC[C@@H](C)[C@H]1CC[C@H]2[C@@H]3CC=C4C[C@@H](O)CC[C@]4(C)[C@H]3CC[C@]12C [27HC, 27-hydroxycholesterol]
IC50: 500 to 800 nM

From publication PMC8946696, “27-Hydroxycholesterol Binds GPER and Induces Progression of Estrogen Receptor-Negative Breast Cancer” (Cancers, 2022)
